# Tests used:
# [1] = target: T1, human Y4 receptor (Homo sapiens, UniProt P50391); assay: Human Y4 receptor potency assay (inositol phosphate turnover, COS-7 cells); format: cell-based; conditions: relative to PP
# T1 construct: expressed in transfected cells; host or cells: COS-7
# Description: (§1) After stimulation with various concentrations of peptide for 45 min at 37 C, cells are extracted with 10% ice-cold perchloric acid followed by incubation on ice for 30 min. The resulting supernatants are neutralized with KOH in HEPES buffer, and the generated [3H]-inositol phosphate are purified on Bio-Rad AG 1-X8 anion-exchange resin and counted in a beta counter. Determinations are made in duplicates. EC50 values were calculated using a standard pharmacological data handling software, Prism 3.0 (graphPad Sofware, San Diego, USA).
# [2] = tested on: food intake; assay: Effect of Y4 selective agonists on acute food intake in mice; format: in vivo, mice (ddy strain)
# Description: . In FIG. 2 is shown the accumulated food intake of the mice during 8 hours. […] The 50% suppressive effect on food intake was observed also when this was measured during the first full hour.
# Effect of Y4 Selective Agonists on Acute Food Intake in Mice
# The ddy strain of mice were used, 34-37 g and 8-9 weeks of age (Japan SLC, Shizuuoka, Japan). The mice were individually house in a regulated environment (22 C, 55% humidity) in a 12-hour light-dark cycle with light on at 7 AM. Food and water were available ad libitum except just before experiments (see below). The mice were acclimatized to subcutaneous injections during the week before experiments started. Mice were used once each in the experiments. Just before administration the peptides were diluted in physiological saline and administered in 100 μL volume for subcutaneous administration. Results are expressed as mean±SE. Analysis of variance followed by Bonferroni's test were used to assess differences among groups.
# Mice were deprived of food but with free access to water for 16 hours prior to the actual test and experiments were started at 10 AM on the following day. A standard diet was used (CLEA Japan, Inc., Tokyo, Japan) and food intake was measured by subtracting uneaten food from the initially premeausured food after administration and checking for food spillage.
# [3] = target: T2, human Y1 receptor (Homo sapiens, UniProt P25929); assay: Human Y1 receptor potency assay (inositol phosphate turnover, COS-7 cells); format: cell-based; conditions: relative to PP
# T2 construct: expressed in transfected cells; host or cells: COS-7
# T2 sequence (P25929 1-384): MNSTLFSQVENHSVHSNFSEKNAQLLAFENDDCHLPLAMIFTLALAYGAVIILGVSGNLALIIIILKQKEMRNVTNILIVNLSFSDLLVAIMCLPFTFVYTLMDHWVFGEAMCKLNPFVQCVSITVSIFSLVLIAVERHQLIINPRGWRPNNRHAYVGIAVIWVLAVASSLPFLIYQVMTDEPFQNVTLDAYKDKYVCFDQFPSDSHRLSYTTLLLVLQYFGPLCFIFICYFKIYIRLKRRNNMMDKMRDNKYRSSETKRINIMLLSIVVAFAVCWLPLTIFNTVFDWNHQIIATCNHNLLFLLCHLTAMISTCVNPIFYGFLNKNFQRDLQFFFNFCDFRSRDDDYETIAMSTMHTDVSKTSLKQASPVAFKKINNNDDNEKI
# Description: Potency of the test compounds on the human Y2 receptor is determined by performing dose-response experiments in COS-7 cells transiently transfected with the human Y2 receptor as well as a promiscuous G protein, Gqi5 which ensures that the Y2 receptor couples through a Gq pathway leading to an increase in inositol phosphate turnover.
# as §1, with “Cells are washed twice in buffer, 20 mM HEPES, pH 7.4, supplemented with 140 mM NaCl, 5 mM KCl, 1 mM MgSO4, 1 mM CaCl2, 10 mM glucose, 0.05% (w/v) bovine serum; and are incubated in 0.5 ml buffer supplemented with 10 mM LiCl at 37 C for 30 min. After” for “After”
# Protocol as for the Y2 potency assay, except that human Y1-transformed COS-7 cells are used.
# T1 sequence (P50391 whole entry): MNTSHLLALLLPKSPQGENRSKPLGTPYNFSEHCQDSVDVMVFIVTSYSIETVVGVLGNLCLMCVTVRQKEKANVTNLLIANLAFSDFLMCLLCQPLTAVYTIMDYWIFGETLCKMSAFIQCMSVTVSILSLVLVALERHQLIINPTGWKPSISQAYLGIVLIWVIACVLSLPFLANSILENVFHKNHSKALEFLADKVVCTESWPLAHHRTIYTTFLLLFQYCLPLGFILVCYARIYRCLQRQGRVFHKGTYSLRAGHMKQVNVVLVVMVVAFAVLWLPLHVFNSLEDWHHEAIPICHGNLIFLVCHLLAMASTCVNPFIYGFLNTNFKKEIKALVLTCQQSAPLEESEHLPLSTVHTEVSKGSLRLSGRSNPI
potency on the Y4 receptor lower than that of PP [1],potency on the Y1 receptor lower than that of PP [3],Structure (SMILES),period for which the suppressive effect on food intake was sustained ([2]; after the single subcutaneous injection),"suppressive effect on food intake ([2]; first full hour, single subcutaneous injection, 16 hours fasted mice)"
7 fold,–,"CC[C@H](C)[C@H](NC(=O)[C@H]1CSSC[C@H](NC(=O)[C@H](C)N)C(=O)N[C@@H](CC(C)C)C(=O)N[C@@H](CCC(=O)O)C(=O)N2CCC[C@H]2C(=O)N[C@@H](C(C)C)C(=O)N[C@@H](Cc2ccc(O)cc2)C(=O)N2CCC[C@H]2C(=O)NCC(=O)N[C@@H](CC(=O)O)C(=O)N[C@@H](CC(N)=O)C(=O)N[C@@H](C)C(=O)N[C@@H]([C@@H](C)O)C(=O)N2CCC[C@H]2C(=O)N[C@@H](CCC(=O)O)C(=O)N[C@@H](CCC(N)=O)C(=O)N[C@@H](CCSC)C(=O)N[C@@H](C)C(=O)N[C@@H](CCC(N)=O)C(=O)N[C@@H](Cc2ccc(O)cc2)C(=O)N[C@@H](C)C(=O)N[C@@H](C)C(=O)N[C@@H](CC(=O)O)C(=O)N[C@@H](CC(C)C)C(=O)N[C@@H](CCCNC(=N)N)C(=O)N[C@@H](CCCNC(=N)N)C(=O)N1)C(=O)N[C@@H](CC(N)=O)C(=O)N[C@@H](CCSC)C(=O)N[C@@H](CC(C)C)C(=O)N[C@H](C(=O)N[C@@H](CCCNC(=N)N)C(=O)N1CCC[C@H]1C(=O)N[C@@H](CCCNC(=N)N)C(=O)N[C@@H](Cc1ccc(O)cc1)C(N)=O)[C@@H](C)O [[Cys2,D-Cys27]PP]",–,–
–,3-4 fold,CC[C@H](C)[C@H](NC(=O)[C@H](Cc1ccc(O)cc1)NC(=O)[C@H](CCCNC(=N)N)NC(=O)[C@H](CCCNC(=N)N)NC(=O)[C@H](CC(C)C)NC(=O)[C@H](CC(=O)O)NC(=O)[C@H](C)NC(=O)[C@H](C)NC(=O)[C@H](Cc1ccc(O)cc1)NC(=O)[C@H](CCC(N)=O)NC(=O)[C@H](C)NC(=O)[C@H](CCSC)NC(=O)[C@H](CCC(N)=O)NC(=O)[C@H](CCC(=O)O)NC(=O)[C@@H]1CCCN1C(=O)[C@@H](NC(=O)[C@H](C)NC(=O)[C@H](CC(N)=O)NC(=O)[C@H](CC(=O)O)NC(=O)CNC(=O)[C@@H]1CCCN1C(=O)[C@H](Cc1ccc(O)cc1)NC(=O)[C@@H](NC(=O)[C@@H]1CCCN1C(=O)[C@H](CCC(=O)O)NC(=O)[C@H](CC(C)C)NC(=O)[C@@H]1CCCN1)C(C)C)[C@@H](C)O)C(=O)N[C@@H](CC(N)=O)C(=O)N[C@@H](CCSC)C(=O)N[C@@H](CC(C)C)C(=O)N[C@H](C(=O)N[C@@H](CCCNC(=N)N)C(=O)N1CCC[C@H]1C(=O)N[C@@H](CCCNC(=N)N)C(=O)N[C@@H](Cc1ccc(O)cc1)C(N)=O)[C@@H](C)O [PP2-36],8 h,50%

# Source: US20080269114A1, “Y4 Selective Receptor Agonists For Thereapeutic Interventions” (priority 2004, published 2008)
